Laboratory results: US7670991B2, “Substituted benzoylcyclohexenones and their use as herbicidal agents” (Bayer CropScience AG, priority 2001, dated 2010)

What was measured:
rice = test: Trial in sown rice (greenhouse), tolerance by rice; type: in vivo; conditions: foliar treatment at 1.5-2-leaf stage of rice, flooded, rated 4 weeks after application
Excerpt: (§1) Solvent: 5 parts by weight of acetone
Plant vessels (dimensions: 20 cm×20 cm×9 cm; surface: 1/200 ar) are filled with soil from a rice field. Seeds of rice and weeds are sown into the soil, which is kept moist.
The test batches are then kept flooded (water depth 3 cm).

[1] = tested on: broad-leaved weeds and weed grasses; test: Post-emergence test, activity against weeds; type: in vivo; conditions: test plants 5-15 cm sprayed, rated after three weeks
Excerpt: as §1

crop plants = conditions: post-emergence, rated after three weeks
Excerpt: Emulsifier: 1 part by weight of alkylaryl polyglycol ether
After three weeks, the degree of damage to the plants is rated in % damage in comparison to the development of the untreated control.

weeds [2] = test: Pre-emergence test, activity against weeds; type: in vivo; conditions: soil sprayed 24 hours after sowing, rated after three weeks
Excerpt: as §1
Seeds of the test plants are sown in normal soil.

[3] = log P by reversed-phase HPLC (C 18), acidic range; type: physicochemical; conditions: for logP: marked a): acidic range
Protocol: Temperature: 43° C. (a) Mobile phases for the determination in the acidic range: 0.1% aqueous phosphoric acid, acetonitrile; linear gradient from 10% acetonitrile to 90% acetonitrile—the corresponding measurement results are marked ^a) in Table 1.

weeds [4] = test: Trial in sown rice (greenhouse), activity against weeds; type: in vivo; conditions: foliar treatment at 1.5-2-leaf stage of rice, flooded, rated 4 weeks after application
Excerpt: as §1
Plant vessels (dimensions: 20 cm×20 cm×9 cm; surface: 1/200 ar) are filled with soil from a rice field. Seeds of rice and weeds are sown into the soil, which is kept moist. At the 1.5-2-leaf stage of rice, the dilute preparation of active compound is applied as a spray (foliar treatment).
One day after the treatment, the test vessels are flooded to a water depth of 3 cm. The test batches are then kept flooded (water depth 3 cm).

[5] = 0.1% aqueous phosphoric acid/acetonitrile gradient, HPLC C 18, 43° C.
[6] = 0.1% aqueous phosphoric acid, acetonitrile, HPLC reversed-phase column (C 18), 43° C.

SMILES | logP [3, 5] | further results
CN1CCN(C(=O)Nc2c(Cl)ccc(C(=O)C3C(=O)CCCC3=O)c2Cl)C1=O [Example 1-1, N-[2,6-dichloro-3-[(2,6-dioxo-cyclohexyl)-carbonyl]-phenyl]-3-methyl-2-oxo-1-imidazolidinecarboxamide] |  | tolerated by rice (rice): tolerated well; activity against broad-leaved weeds and weed grasses [1]: strong activity; tolerated by crop plants (crop plants): tolerated well; activity against weeds (weeds [2]): strong activity; chromatographic logP ([3]; reversed-phase HPLC column (C 18), pH=2.3): 2.07; activity against weeds (weeds [4]): strong activity
CCN1CCN(C(=O)Nc2c(Cl)ccc(C(=O)C3=C(O)CCCC3=O)c2Cl)C1=O [Example 1-2] | (I-2) logP = 2.33^a) | activity against weeds (weeds [2]): strong activity
CON(C)C(=O)Nc1c(Cl)ccc(C(=O)C2=C(O)CCCC2=O)c1Cl [Example 1-3] | (I-2) logP = 1.97^a) | activity against weeds (weeds [2]): strong activity
CN1CCCN(C(=O)Nc2c(Cl)ccc(C(=O)C3=C(O)CCCC3=O)c2Cl)C1=O [Example 1-4] | (I-2) logP = 2.33^a) | activity against weeds (weeds [2]): strong activity
O=C1CCCC(O)=C1C(=O)c1ccc(Cl)c(NC(=O)N2CCOCC2)c1Cl [Example 1-5] | (I-2) logP = 1.60^a) | activity against weeds (weeds [2]): strong activity
CN(C)NC(=O)Nc1c(Cl)ccc(C(=O)C2=C(O)CCCC2=O)c1Cl [Example 1-6] | (I-2) logP = 1.81^a) | activity against weeds (weeds [2]): strong activity
O=C(NCc1ccccc1)Nc1c(Cl)ccc(C(=O)C2=C(O)CCCC2=O)c1Cl [Example 1-142] | (I-2) logP = 2.37^a) | 
O=C1CCCC(O)=C1C(=O)c1ccc(Cl)c(NC(=O)C2=NOCC2)c1Cl [Example 1-145] | (I-2) logP = 2.02^a) | 
O=C1CCCC(O)=C1C(=O)c1ccc(Cl)c(NC(=O)c2ccco2)c1Cl [Example 1-147] | (I-2) logP = 2.08^a) | 
O=C1CCCC(O)=C1C(=O)c1ccc(Cl)c(NC(=O)c2ccc(Cl)cc2)c1Cl [Example 1-150] | (I-2) logP = 2.96^a) | 
O=C1CCCC(O)=C1C(=O)c1ccc(Cl)c(NC(=O)N2CCCO2)c1Cl [Example 1-151] | (I-2) logP = 1.93^a) | 
CON(C)C(=S)Nc1c(Cl)ccc(C(=O)C2=C(O)CCCC2=O)c1Cl [Example 1-159] | (I-2) logP = 2.28^a) | 
O=C(Nc1c(Cl)ccc(C(=O)C2=C(O)CCCC2=O)c1Cl)NN1CCCCC1 [Example 1-160] | (I-2) logP = 2.52^a) | 
CON(C)C(=O)Nc1c(Cl)ccc(C(=O)C2=C(Sc3ccccc3)CCCC2=O)c1Cl [Example 1-161] | (I-2) Y = SC6H5 logP = 2.98^a) | 
Cn1ccsc1=NC(=O)Nc1c(Cl)ccc(C(=O)C2=C(O)CCCC2=O)c1Cl [Example 1-162] | (I-2) logP = 1.96^a) | 
CCn1ccsc1=NC(=O)Nc1c(Cl)ccc(C(=O)C2=C(O)CCCC2=O)c1Cl [Example 1-163] | (I-2) logP = 2.22^a) | 
O=C1CCCC(O)=C1C(=O)c1ccc(Cl)c(NC(=O)N2CCCCO2)c1Cl [Example 1-164] | (I-2) logP = 2.17^a) | 
CCCN(CC)C(=O)Nc1c(Cl)ccc(C(=O)C2=C(O)CCCC2=O)c1Cl [Example 1-165] | (I-2) logP = 2.56^a) | 
CC(C)N(C)C(=O)Nc1c(Cl)ccc(C(=O)C2=C(O)CCCC2=O)c1Cl [Example 1-166] | (I-2) logP = 2.17^a) | 
CCON(C)C(=O)Nc1c(Cl)ccc(C(=O)C2=C(O)CCCC2=O)c1Cl [Example 1-167] | (I-2) logP = 2.30^a) | 
CC(C)(C)NC(=O)Nc1c(Cl)ccc(C(=O)C2=C(O)CCCC2=O)c1Cl [Example 1-168] | (I-2) logP = 2.41^a) | 

SMILES | logP [3, 5] | further results
CCN(C(=O)Nc1c(Cl)ccc(C(=O)C2=C(O)CCCC2=O)c1Cl)C(C)C [Example 1-169] | (I-2) logP = 2.49^a) | 
CCN(C)C(=O)Nc1c(Cl)ccc(C(=O)C2=C(O)CCCC2=O)c1Cl [Example 1-170] | (I-2) logP = 1.91^a) | 
O=C(NCC1CC1)Nc1c(Cl)ccc(C(=O)C2=C(O)CCCC2=O)c1Cl [Example 1-171] | (I-2) logP = 2.05^a) | 
COCCCNC(=O)Nc1c(Cl)ccc(C(=O)C2=C(O)CCCC2=O)c1Cl [Example 1-172] | (I-2) logP = 1.72^a) | 
CCCN(C)C(=O)Nc1c(Cl)ccc(C(=O)C2=C(O)CCCC2=O)c1Cl [Example 1-173] | (I-2) logP = 2.22^a) | 
CON(C)C(=O)Nc1c(Cl)ccc(C(=O)C2=C(O)C(C)(C)CCC2=O)c1Cl [Example 2-1] |  | logP [3, 6]: (I-2) logP = 2.61^a)
CC1(C)CCC(=O)C(C(=O)c2ccc(Cl)c(NC(=O)N3CCCO3)c2Cl)=C1O [Example 2-61] |  | logP [3, 6]: (I-2) logP = 2.57^a)
CC1(C)CCC(=O)C(C(=O)c2ccc(Cl)c(NC(=O)N3CCCCO3)c2Cl)=C1O [Example 2-69] |  | logP [3, 6]: (I-2) logP = 2.83^a)
CON(C)C(=O)Nc1c(Cl)ccc(C(=O)C2=C(O)CC(C)(C)CC2=O)c1Cl [Example 4-1] |  | logP [3, 6]: (I-2) logP = 2.54^a)
CC1(C)CC(=O)C(C(=O)c2ccc(Cl)c(NC(=O)N3CCCCO3)c2Cl)=C(O)C1 [Example 4-69] |  | logP [3, 6]: (I-2) logP = 2.76^a)
CON(C)C(=O)Nc1c(Cl)ccc(C(=O)C2=C(O)C3CCC(C3)C2=O)c1Cl (stereo not drawn) [Example 5-1] |  | logP ([3]; 0.1% aqueous phosphoric acid/acetonitrile gradient, reversed-phase HPLC C 18, 43° C.): (I-2) logP = 2.23^a)
COC(=O)c1ccc(Cl)c(NC(=O)N2CCOCC2)c1Cl [IIIa-6] | logP = 1.34^a) | 
COC(=O)c1ccc(Cl)c(NC(=O)NN(C)C)c1Cl [IIIa-7] | logP = 1.64^a) | 
COC(=O)c1ccc(Cl)c(NC(=O)N2CCN(C)CC2)c1Cl [IIIa-8] | logP = 0.50^a) | 
CCN(CC)C(=O)Nc1c(Cl)ccc(C(=O)OC)c1Cl [IIIa-9] | logP = 2.02^a) | 
COC(=O)c1ccc(C(F)(F)F)cc1NC(=O)N(C)OC [IIIa-10] | logP = 3.35^a) | 
COC(=O)c1ccc(C(F)(F)F)cc1NC(=O)N1CCN(C)C1=O [IIIa-11] | logP = 2.76^a) | 
CCN(CC)C(=O)Nc1cc(C(F)(F)F)ccc1C(=O)OC [IIIa-17] | logP = 3.10^a) | 
COC(=O)c1ccc(Cl)c(NC(=O)N2CCCN(CC(C)C)C2=O)c1Cl [IIIa-21] | logP = 3.43^a) | 
COC(=O)c1ccc(Cl)c(NC(=O)Nn2cnnc2)c1Cl [IIIa-25] | logP = 0.93^a) | 
